In patent publication US11311609B2, “Regulating chimeric antigen receptors” (DANA-FARBER CANCER INSTITUTE, INC., priority 2017, dated 2022):

Tested on: SMART-CAR
Assay: SMART-CAR expression in Jurkat T-cells by flow cytometry with HA-antibody
Type: cell-based, human
Settings: 4 hour pretreatment 250 nM, wash, retreatment with 250 nM dFKBP7; 1:1 co-culture
From the text: FIG. 27 is a histogram plot illustrating the ability to track SMART-CAR expression in Jurkat cells. SMART-CAR expressing Jurkat cells were stained with a HA-antibody and subsequently labelled with a secondary Alexa647 fluorescent antibody. Stained cells were subject to flow cytometry with excitation with a 647 nm laser and HA expression quantified via Alexa647 fluorescent signal (Example 24). The observed shift in signal illustrates the ability to track SMART-CAR expression in Jurkat T cells.
FIG. 31 are line plots tracking CD19 positive tumor cells and SMART-CAR expression levels as described in the experimental setup in FIG. 20 and described in Example 26. After the 4 hour pretreatment with 250 nM of dFKBP7, SMART-CAR expressing Jurkats were mixed in a 1:1 ratio with CD19 positive tumor cells (Daudi: top and Raji: bottom) in the presence (green line) or absence (blue line) of 250 nM of dFKBP7. […]
FIG. 27 illustrates the use of flow cytometry to monitor SMART-CAR protein expression in Jurkat T-cells. […] This allows for quantitative measurements of SMART-CAR protein expression levels.
SMART-CAR expressing Jurkat cells were pretreated with dFKBP7 at 250 nM for 4 hours to allow for maximal degradation of SMART-CAR. […] The two experimental arms were then mixed at a 1:1 ratio with CD19 positive tumor cells and CD19-positive tumor cells monitored by flow cytometry. […]

CC[C@H](C(=O)N1CCCC[C@H]1C(=O)O[C@H](CCc1ccc(OC)c(OC)c1)c1cccc(OCC(=O)NCCCOCCOCCOCCCNC(=O)COc2cccc3c2C(=O)N(C2CCC(=O)NC2=O)C3=O)c1)c1cc(OC)c(OC)c(OC)c1 (stereo partly shown) [dFKBP7]
SMART-CAR expression: minimal
